Structures are written as SMILES.

Test [1] has as its target T1, 5-HT5A (Homo sapiens, UniProt P47898).
T1 construct: purchased NIMH Psychoactive Drug Screening Program (PDSP)
The test is described as follows: PDSP primary binding 5-HT5A. The conditions noted are these: 1.5 h; primary binding, 10,000 nM; last figure of the line = mean of the 4 before it; read-out: 5-HT5A, PDSP raw data, mean. The procedure:
(§1) To determine if any off-target receptor-binding effects are present, all the novel ligands were sent to the National Institute of Mental Health (NIMH), Psychoactive Drug Screening Program (PDSP). The ligands were screened over a panel of 47 receptors, ion channels, and transporters to determine any other possible interactions with […]. The hERG-binding was also determined. […] No binding of the test compounds to calcium channels was observed. […] It is necessary to screen the compounds for hERG-binding during the early process of drug discovery. The unintentional binding of many drugs to hERG can cause blockade of hERG K+ channels in the heart, which can cause many side effects including cardiac arrhythmias and sudden death. […] All of the α5 imidazodiazepines were tested for hERG-binding.
(§2) The NIMH PDSP assay protocol book [https://kidbdev.med.unc.edu/databases/PDSP%20Protocols%20II%202013-03-28.pdf accessed on 23 April 2023]. describes the protocols for primary and secondary radio-ligand binding assays. These assays were carried out in a final volume of 125 µL per well in the appropriate binding buffer.
(§3) The binding of a ligand to a receptor, ion channel, or transporter was determined in the […] of 10 µM of the appropriate reference compound. […] Plates were incubated in the dark for 90 min at rt, and the reactions were stopped by vacuum filtration onto 0.3% polyethyleneimine (PEI) soaked 96-well filter mats using a 96-well Filtermateharvester. This was followed by three washes with cold PBS buffer. Radioactivity was then counted on a Microbeta counter. Nonlinear regression was used to analyze the data with N = 6 replicates.

In test [2] the target is T2, M3 (Homo sapiens, UniProt P20309).
T2 construct: purchased NIMH Psychoactive Drug Screening Program (PDSP)
The test is described as follows: PDSP primary binding M3. The conditions noted are these: primary binding, 10,000 nM; last figure of the line = mean of the 4 before it; read-out: M3, PDSP raw data, mean. The procedure:
as §1, §2, §3

The target in test [3] is T3, A2A (Homo sapiens, UniProt P29274).
T3 construct: purchased NIMH Psychoactive Drug Screening Program (PDSP)
The test is described as follows: PDSP primary binding A2A. The conditions noted are these: primary binding, 10,000 nM; last figure of the line = mean of the 4 before it. As for the experimental part: as §1, §2, §3

The target of test [4] is T4, NTS1 (Homo sapiens, UniProt P30989).
T4 construct: purchased NIMH Psychoactive Drug Screening Program (PDSP)
Briefly: PDSP primary binding NTS1. The conditions noted are these: primary binding, 10,000 nM; last figure of the line = mean of the 4 before it; read-out: NTS1, PDSP raw data, mean. The procedure:
as §1, §2, §3

Test [5] deals with T5, Alpha1B (Homo sapiens, UniProt P35368).
T5 construct: purchased NIMH Psychoactive Drug Screening Program (PDSP)
T5 sequence (P35368 1-520): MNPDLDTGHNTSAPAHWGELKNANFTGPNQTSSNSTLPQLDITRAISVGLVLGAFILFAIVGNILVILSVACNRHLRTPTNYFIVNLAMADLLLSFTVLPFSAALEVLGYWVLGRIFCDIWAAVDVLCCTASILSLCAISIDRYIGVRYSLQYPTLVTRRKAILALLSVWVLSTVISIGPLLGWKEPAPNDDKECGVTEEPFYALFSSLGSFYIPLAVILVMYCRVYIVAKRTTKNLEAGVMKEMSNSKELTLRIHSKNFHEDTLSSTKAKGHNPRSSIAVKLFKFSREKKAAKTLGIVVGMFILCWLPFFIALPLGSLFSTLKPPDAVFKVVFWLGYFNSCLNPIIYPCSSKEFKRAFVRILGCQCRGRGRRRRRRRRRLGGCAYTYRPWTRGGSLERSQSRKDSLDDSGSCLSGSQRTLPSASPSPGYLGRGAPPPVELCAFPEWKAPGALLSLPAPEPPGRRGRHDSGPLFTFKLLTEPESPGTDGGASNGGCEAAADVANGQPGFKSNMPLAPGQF
The test is described as follows: PDSP primary binding Alpha1B. The conditions noted are these: 1.5 h; primary binding, 10,000 nM; last figure of the line = mean of the 4 before it; read-out: Alpha1B, PDSP raw data, mean. As for the experimental part:
as §1, §2, §3

The subject of test [6] is Kainate (Rat Brain). Briefly: PDSP primary binding Kainate (Rat Brain). The following applies: primary binding, 10,000 nM; last figure of the line = mean of the 4 before it. The procedure:
as §1, §2, §3

Test [7] concerns the target T6, A1 (Homo sapiens, UniProt P30542).
T6 construct: purchased NIMH Psychoactive Drug Screening Program (PDSP)
T6 sequence (P30542 1-326): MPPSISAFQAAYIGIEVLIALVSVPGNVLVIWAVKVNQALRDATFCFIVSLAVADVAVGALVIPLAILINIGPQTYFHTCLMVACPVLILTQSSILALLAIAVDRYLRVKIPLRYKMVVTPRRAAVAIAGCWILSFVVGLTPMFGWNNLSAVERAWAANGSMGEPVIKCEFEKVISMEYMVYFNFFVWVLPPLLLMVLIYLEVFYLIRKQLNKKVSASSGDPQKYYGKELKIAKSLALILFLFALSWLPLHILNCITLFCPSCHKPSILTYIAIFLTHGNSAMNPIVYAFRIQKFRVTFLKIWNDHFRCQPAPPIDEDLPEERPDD
The test is described as follows: PDSP primary binding A1. The following applies: 1.5 h; primary binding, 10,000 nM; last figure of the line = mean of the 4 before it; read-out: A1, PDSP raw data, mean. As for the experimental part: as §1, §2, §3

In test [8] the target is T7, Alpha4Beta2 (Rat Brain) (Rattus norvegicus, UniProt P09483+P12390).
T7 construct: purchased NIMH Psychoactive Drug Screening Program (PDSP)
The test is described as follows: PDSP primary binding Alpha4Beta2 (Rat Brain). The conditions noted are these: primary binding, 10,000 nM; last figure of the line = mean of the 4 before it; read-out: Alpha4Beta2 (Rat Brain), PDSP raw data, mean. As for the experimental part: as §1, §2, §3

For test [9], the target named is T8, 5-HT7A (Homo sapiens, UniProt P34969).
T8 construct: purchased NIMH Psychoactive Drug Screening Program (PDSP)
Briefly: PDSP primary binding 5-HT7A. The conditions noted are these: 1.5 h; primary binding, 10,000 nM; last figure of the line = mean of the 4 before it; read-out: 5-HT7A, PDSP raw data, mean. As for the experimental part:
as §1, §2, §3

Test [10] deals with T9, Alpha1A (Homo sapiens, UniProt P35348).
T9 construct: purchased NIMH Psychoactive Drug Screening Program (PDSP)
T9 sequence (P35348 1-466): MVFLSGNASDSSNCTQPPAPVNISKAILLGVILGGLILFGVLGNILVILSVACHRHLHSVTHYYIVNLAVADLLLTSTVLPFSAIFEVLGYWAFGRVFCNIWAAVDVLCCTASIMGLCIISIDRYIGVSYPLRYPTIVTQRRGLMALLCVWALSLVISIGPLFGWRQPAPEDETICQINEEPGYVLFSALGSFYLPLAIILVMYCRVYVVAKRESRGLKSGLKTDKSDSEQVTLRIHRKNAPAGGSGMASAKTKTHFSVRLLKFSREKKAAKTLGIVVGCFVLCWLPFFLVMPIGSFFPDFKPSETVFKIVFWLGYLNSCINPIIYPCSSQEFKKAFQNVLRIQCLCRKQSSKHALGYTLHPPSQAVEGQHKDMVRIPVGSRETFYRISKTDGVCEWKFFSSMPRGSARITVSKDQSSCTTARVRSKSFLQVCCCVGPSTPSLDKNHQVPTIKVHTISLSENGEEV
Briefly: PDSP primary binding Alpha1A. The following applies: 1.5 h; primary binding, 10,000 nM; last figure of the line = mean of the 4 before it; read-out: Alpha1A, PDSP raw data, mean. As for the experimental part:
as §1, §2, §3

T8 sequence (P34969 1-445 isoform P34969-2): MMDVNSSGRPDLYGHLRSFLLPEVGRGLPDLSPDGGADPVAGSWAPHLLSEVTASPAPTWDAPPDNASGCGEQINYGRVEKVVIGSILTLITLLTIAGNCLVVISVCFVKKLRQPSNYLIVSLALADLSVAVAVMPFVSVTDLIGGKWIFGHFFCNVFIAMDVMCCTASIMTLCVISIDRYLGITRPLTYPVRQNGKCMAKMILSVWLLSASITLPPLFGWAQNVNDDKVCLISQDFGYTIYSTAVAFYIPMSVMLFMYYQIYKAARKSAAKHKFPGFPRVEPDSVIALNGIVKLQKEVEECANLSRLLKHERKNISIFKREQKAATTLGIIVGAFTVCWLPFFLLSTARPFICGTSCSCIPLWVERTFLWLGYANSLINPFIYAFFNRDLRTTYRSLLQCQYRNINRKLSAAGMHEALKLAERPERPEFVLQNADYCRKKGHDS
T1 sequence (P47898 whole entry): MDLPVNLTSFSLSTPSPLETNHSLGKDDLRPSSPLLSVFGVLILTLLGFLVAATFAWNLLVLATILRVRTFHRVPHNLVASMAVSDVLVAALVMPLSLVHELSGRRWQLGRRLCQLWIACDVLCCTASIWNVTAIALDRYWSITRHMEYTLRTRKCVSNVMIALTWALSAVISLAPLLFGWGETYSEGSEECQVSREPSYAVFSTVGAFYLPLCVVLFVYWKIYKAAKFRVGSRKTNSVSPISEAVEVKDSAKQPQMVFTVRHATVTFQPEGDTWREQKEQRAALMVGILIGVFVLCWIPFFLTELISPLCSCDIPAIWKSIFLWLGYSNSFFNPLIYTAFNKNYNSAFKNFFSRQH
T4 sequence (P30989 whole entry): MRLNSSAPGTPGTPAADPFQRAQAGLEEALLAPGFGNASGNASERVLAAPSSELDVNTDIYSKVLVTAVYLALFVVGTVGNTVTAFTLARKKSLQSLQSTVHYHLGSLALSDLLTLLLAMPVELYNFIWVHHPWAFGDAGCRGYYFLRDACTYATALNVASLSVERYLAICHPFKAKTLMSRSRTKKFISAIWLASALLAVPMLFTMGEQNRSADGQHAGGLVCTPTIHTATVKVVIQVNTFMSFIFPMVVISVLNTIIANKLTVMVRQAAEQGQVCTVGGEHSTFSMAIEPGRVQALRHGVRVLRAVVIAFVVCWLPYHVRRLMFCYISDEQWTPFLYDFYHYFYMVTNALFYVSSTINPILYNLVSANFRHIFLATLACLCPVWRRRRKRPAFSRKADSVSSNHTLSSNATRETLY
T7 sequence (P09483 31-630): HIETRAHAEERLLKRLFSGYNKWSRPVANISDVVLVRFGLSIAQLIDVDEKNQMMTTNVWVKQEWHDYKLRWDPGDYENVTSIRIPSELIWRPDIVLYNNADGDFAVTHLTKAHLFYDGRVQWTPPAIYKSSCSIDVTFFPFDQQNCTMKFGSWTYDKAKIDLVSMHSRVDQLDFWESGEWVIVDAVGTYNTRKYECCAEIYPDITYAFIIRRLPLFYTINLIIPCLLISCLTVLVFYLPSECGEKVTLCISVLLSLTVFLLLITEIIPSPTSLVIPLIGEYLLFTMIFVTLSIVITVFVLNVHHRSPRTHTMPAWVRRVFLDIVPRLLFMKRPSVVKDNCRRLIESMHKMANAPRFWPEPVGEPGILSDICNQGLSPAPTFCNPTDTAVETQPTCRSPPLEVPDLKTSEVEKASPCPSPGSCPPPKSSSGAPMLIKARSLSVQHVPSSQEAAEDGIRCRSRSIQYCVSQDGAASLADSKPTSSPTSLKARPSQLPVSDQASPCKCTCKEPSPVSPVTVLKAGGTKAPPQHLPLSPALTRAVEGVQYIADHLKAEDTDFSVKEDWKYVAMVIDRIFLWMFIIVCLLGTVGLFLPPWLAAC
T7 sequence (P12390 25-500): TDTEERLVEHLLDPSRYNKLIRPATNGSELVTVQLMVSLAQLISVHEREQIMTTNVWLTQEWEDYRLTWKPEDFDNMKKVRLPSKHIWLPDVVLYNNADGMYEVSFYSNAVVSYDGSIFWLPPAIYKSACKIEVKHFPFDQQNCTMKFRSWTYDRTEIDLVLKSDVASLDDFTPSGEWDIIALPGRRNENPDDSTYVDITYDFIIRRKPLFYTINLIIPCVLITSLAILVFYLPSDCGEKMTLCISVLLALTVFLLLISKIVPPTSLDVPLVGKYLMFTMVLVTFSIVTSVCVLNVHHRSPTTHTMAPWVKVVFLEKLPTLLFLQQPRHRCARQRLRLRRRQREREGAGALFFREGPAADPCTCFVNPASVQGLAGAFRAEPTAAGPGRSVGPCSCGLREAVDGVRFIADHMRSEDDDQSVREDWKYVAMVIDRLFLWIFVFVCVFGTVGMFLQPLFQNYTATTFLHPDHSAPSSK
T3 sequence (P29274 whole entry): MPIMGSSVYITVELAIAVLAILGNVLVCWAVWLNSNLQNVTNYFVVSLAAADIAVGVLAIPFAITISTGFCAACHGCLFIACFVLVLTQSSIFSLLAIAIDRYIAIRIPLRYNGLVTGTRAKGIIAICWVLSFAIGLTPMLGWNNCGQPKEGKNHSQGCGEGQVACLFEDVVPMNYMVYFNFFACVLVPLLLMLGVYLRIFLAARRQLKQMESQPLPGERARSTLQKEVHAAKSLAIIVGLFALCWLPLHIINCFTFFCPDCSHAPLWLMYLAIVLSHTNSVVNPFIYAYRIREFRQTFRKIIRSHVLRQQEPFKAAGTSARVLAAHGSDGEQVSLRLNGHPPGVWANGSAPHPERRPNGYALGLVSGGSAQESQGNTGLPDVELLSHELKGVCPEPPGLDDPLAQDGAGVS
T2 sequence (P20309 whole entry): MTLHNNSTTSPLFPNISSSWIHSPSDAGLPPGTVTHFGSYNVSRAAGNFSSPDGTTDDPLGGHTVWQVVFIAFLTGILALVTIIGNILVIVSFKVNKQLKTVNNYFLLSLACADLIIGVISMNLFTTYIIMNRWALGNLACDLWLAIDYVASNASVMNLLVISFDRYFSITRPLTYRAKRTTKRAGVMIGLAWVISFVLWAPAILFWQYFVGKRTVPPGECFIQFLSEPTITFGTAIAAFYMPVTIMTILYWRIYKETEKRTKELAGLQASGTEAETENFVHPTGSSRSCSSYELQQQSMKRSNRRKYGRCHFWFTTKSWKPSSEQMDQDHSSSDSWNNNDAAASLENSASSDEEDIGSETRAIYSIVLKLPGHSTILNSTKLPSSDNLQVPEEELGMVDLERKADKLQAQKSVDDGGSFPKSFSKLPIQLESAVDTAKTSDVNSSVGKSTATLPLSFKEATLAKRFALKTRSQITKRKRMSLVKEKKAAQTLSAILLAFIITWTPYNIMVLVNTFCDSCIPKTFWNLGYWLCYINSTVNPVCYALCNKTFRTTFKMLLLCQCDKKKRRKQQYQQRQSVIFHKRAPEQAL

Take `CCc1noc(-c2ncn3c2[C@@H](C)N=C(c2ccccc2F)c2cc(C4CC4)ccc2-3)n1` [Compound 46, (R)-5-(8-Cyclopropyl-6-(2′-fluorophenyl)-4-methyl-4H-benzo[f]imidazo[1,5-a][1,4]diazepin-3-yl)-3-ethyl-1,2,4-oxadiazole]: the inhibition at 10 µM in [1] was 23.6%; in test [2], 8.95%; in test [4], -29.8%; in test [5], 9.31%; in test [7], 30.9%; in test [8] it was -5.79%. For the same compound, the inhibition at 10 µM in [9] turned out to be 4.98%; in test [10], 31.8%. The “A2A, PDSP raw data, mean” value in [3] is given as 27.25%. Also, the “Kainate (Rat Brain), PDSP raw data, mean” value in test [6] was determined as 38.21%.

On to `C#Cc1ccc2c(c1)C(c1ccccc1Cl)=N[C@H](C)c1c(C(=O)N(C)CC)ncn1-2` [Compound 29], for which the inhibition at 10 µM in test [1] was -3.73%; in test [2] it was -8.9%; in test [4] it was -19.5%; in test [5], 19.8%; in [7], -6.38%; in [8], 0.03%. Further, the inhibition at 10 µM is -2.22% in test [9] and 4.97% in [10]. Further, in [3], the “A2A, PDSP raw data, mean” value is -10.24%. The “Kainate (Rat Brain), PDSP raw data, mean” value in test [6] worked out at 16.79%.

For the compound `C#Cc1ccc2c(c1)C(c1ccccn1)=N[C@@H](C)c1c(C(=O)NC)ncn1-2` [Compound 23, (S)-8-Ethynyl-N,4-dimethyl-6-(pyridin-2′-yl)-4H-benzo[f]imidazo[1,5-a][1,4]diazepine-3-carboxamide], the inhibition at 10 µM was -2.76% in [1]; 0.11% in [2]; -5.89% in test [4]; 22.2% in [5]; 10.4% in [7]; 2.71% in [8]. In addition, the inhibition at 10 µM in test [9] was -13.5%; in test [10], -5.28%. For the same compound, the “A2A, PDSP raw data, mean” value in [3] is -9.74%. Moreover, the “Kainate (Rat Brain), PDSP raw data, mean” value in test [6] was determined as 37.08%.

Consider `C#Cc1ccc2c(c1)C(c1ccccc1Cl)=N[C@H](C)c1c(C(=O)NC)ncn1-2` [Compound 21, (R)-6-(2′-Chlorophenyl)-8-ethynyl-N,4-dimethyl-4H-benzo[f]imidazo[1,5-a][1,4]diazepine-3-carboxamide], for which the inhibition at 10 µM in test [1] was 2.76%; in [2], -12.9%; in test [4] it was -25.2%; in [5], -6.66%; in [7], -13.3%; in [8] it was 0.7%. The inhibition at 10 µM in [9] is -12.3%; in [10], -5.44%. For the same compound, in test [3], the “A2A, PDSP raw data, mean” value is listed as -13.5%. The “Kainate (Rat Brain), PDSP raw data, mean” value in test [6] is recorded as -4.58%.

As for `CCc1noc(-c2ncn3c2[C@@H](C)N=C(c2ccccc2F)c2cc(-c4ccccc4)ccc2-3)n1` [Compound 35, (R)-3-Ethyl-5-(6-(2′-fluorophenyl)-4-methyl-8-phenyl-4H-benzo[f]imidazo[1,5-a][1,4]diazepin-3-yl)-1,2,4-oxadiazole], the inhibition at 10 µM in [1] is 19.5%; in [2] it was 9.75%; in test [4] it was -32.6%; in test [5], 8.69%; in [7] it was 27.1%; in test [8], -11.6%. Moreover, the inhibition at 10 µM in test [9] stood at 8.12%; in test [10], 20.8%. The “A2A, PDSP raw data, mean” value in test [3] stood at 19.84%. Also, the “Kainate (Rat Brain), PDSP raw data, mean” value in [6] is 33.32%.

As to `C#Cc1ccc2c(c1)C(c1ccccn1)=N[C@@H](C)c1c(C(=O)N(C)C)ncn1-2` [Compound 31, (S)-8-Ethynyl-N,N,4-trimethyl-6-(pyridin-2′-yl)-4H-benzo[f]imidazo[1,5-a][1,4]diazepine-3-carboxamide], the inhibition at 10 µM in test [1] is -7.46%; in test [2], -13%; in test [4] it was 0.28%; in [5] it was 11%; in test [7], 32.2%; in [8] it was 2.48%. Further, the inhibition at 10 µM is -9.64% in [9] and -10.5% in test [10]. For the same compound, in test [3], the “A2A, PDSP raw data, mean” value is listed as -10.83%. Further, the “Kainate (Rat Brain), PDSP raw data, mean” value in [6] came to 23.99%.

On to `C#Cc1ccc2c(c1)C(c1ccccc1F)=N[C@H](C)c1c(C(=S)N(C)C)ncn1-2` [Compound 33, (R)-8-Ethynyl-6-(2′-fluorophenyl)-N,N,4-trimethyl-4H-benzo[f]imidazo[1,5-a][1,4]diazepine-3-carbothioamide], for which the inhibition at 10 µM in [1] is 53.6%; in test [2], 3.03%; in [4], -16.7%; in test [5], -15.3%; in test [7], 25.9%; in test [8], -5.7%. Besides, the inhibition at 10 µM in test [9] is 4.31%; in test [10], -4.47%. Moreover, in [3], the “A2A, PDSP raw data, mean” value is 11.57%. For the same compound, the “Kainate (Rat Brain), PDSP raw data, mean” value in test [6] worked out at 3.43%.

The record behind these values is paper PMC10303271, “Synthesis and Receptor Binding Studies of α5 GABAAR Selective Novel Imidazodiazepines Targeted for Psychiatric and Cognitive Disorders” (Molecules, 2023).
